# How the values were obtained:
# Assay type in all cases: binding
# [1] = target: T1, DRP1A (Arabidopsis thaliana, UniProt P42697); assay: bio-layer interferometry, liposome-loaded APS sensor
# T1 sequence (P42697 1-610): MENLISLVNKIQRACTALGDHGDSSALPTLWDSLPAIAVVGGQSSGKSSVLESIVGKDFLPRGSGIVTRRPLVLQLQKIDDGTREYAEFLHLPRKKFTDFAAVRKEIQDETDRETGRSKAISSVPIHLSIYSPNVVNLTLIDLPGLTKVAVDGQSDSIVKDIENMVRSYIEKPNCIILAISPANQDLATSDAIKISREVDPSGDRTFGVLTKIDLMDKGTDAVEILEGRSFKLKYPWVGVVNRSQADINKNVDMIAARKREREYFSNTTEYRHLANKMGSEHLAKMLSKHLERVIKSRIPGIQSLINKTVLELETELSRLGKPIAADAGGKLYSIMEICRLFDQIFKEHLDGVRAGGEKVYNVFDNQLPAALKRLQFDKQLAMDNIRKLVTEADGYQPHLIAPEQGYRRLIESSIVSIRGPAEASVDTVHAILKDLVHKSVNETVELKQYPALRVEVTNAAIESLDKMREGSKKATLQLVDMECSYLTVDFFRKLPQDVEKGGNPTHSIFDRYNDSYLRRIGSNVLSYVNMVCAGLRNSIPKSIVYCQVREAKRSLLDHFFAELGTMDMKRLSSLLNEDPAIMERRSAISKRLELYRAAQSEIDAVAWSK
# [2] = target: T2, ALA1 Loop2 (410–914 aa) (Arabidopsis thaliana, UniProt P98204); assay: as above
# T2 sequence (P98204 410-914): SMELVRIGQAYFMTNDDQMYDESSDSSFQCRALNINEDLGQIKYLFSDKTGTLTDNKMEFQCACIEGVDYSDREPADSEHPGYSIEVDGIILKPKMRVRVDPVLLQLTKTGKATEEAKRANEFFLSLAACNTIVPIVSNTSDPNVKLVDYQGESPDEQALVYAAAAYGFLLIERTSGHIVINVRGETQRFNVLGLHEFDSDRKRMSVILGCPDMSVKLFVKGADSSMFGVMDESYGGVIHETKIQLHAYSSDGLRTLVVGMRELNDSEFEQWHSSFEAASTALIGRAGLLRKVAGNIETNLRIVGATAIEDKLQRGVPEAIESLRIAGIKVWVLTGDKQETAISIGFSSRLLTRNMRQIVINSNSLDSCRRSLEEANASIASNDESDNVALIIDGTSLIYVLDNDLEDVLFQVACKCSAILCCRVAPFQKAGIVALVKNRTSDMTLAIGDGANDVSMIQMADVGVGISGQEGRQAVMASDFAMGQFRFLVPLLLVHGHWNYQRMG
# [3] = target: T3, ALA1 Loop1 (151–329 aa) (Arabidopsis thaliana, UniProt P98204); assay: as above
# T3 sequence (P98204 151-329): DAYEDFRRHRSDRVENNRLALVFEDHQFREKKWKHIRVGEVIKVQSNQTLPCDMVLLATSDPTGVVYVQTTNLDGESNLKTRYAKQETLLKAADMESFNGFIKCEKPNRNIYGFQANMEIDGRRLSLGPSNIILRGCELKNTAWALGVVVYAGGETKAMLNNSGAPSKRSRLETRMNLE
# [4] = target: T1, DRP1A; assay: bio-layer interferometry, POPC background subtracted; conditions: 3% lipid in POPC liposomes; HEPES pH 7.5, 100 mM NaCl
# [5] = target: T2, ALA1 Loop2 (410–914 aa); assay: as above; conditions: 3% lipid in POPC liposomes; HEPES pH 7.5, 100 mM NaCl
Kd [1] [nM],Kd [2] [nM],Kd [3] [µM],Compound,"bio-layer interferometry, POPC background subtracted [4]","bio-layer interferometry, POPC background subtracted [5]"
1230,–,–,"CCCCCCCC/C=C\CCCCCCCC(=O)OC[C@H](COP(=O)(O)O[C@@H]1[C@H](O)[C@H](O)[C@@H](OP(=O)(O)O)[C@H](OP(=O)(O)O)[C@H]1O)OC(=O)CCCCCCC/C=C\CCCCCCCC [PI(4,5)P2]",–,–
–,2210,6.05,CCCCCCCC/C=C\CCCCCCCC(=O)OC[C@H](COP(=O)(O)O[C@H]1[C@H](O)[C@@H](O)[C@H](OP(=O)(O)O)[C@@H](O)[C@H]1O)OC(=O)CCCCCCC/C=C\CCCCCCCC [PI4P],followed by weaker binding to PI4P and PS liposomes,–
–,–,–,CCCCCCCC/C=C\CCCCCCCC(=O)OC[C@H](COP(=O)(O)O[C@H]1[C@H](O)[C@@H](OP(=O)(O)O)[C@H](O)[C@@H](O)[C@H]1O)OC(=O)CCCCCCC/C=C\CCCCCCCC [PI5P],–,"highest near-steady-state binding was observed with PS, PI4P and PI5P liposomes"
–,–,–,CCCCCCCC/C=C\CCCCCCCC(=O)OC[C@H](COP(=O)(O)OC[C@H](N)C(=O)O)OC(=O)CCCCCCC/C=C\CCCCCCCC [PS],followed by weaker binding to PI4P and PS liposomes,"highest near-steady-state binding was observed with PS, PI4P and PI5P liposomes"

# From paper PMC12311136 (Nature Communications, 2025)
